Structures can show the parent of a compound that is named as a salt.
Tests used:
[1] = test system: onychomycosis of the toenail; details: in vivo; cited from earlier work
[2] = test system: onychomycosis of the toenail; experiment: ALA-based PDT of onychomycosis with 10 day delay before red light (Example 1)
Experimental: A 5 percent ALA solution was prepared by dilution of 20 percent ALA Topical Solution (Levulan® Kerastick® (aminolevulinic acid HCl) for Topical Solution, 20%). The ALA solution was then applied to a healthy volunteer suffering from mild to moderate onychomycosis involving the hallux (proximal or big toe) toenail and the second toenail of the left foot. The ALA solution was applied liberally to the nail surface and the periungual skin areas. The entire toe was wrapped in an occlusive dressing (Tegaderm®) for 12 hours. Twenty-four hours post ALA application, the treated area was examined for porphryin fluorescence using a long wave UV light (Wood's Light) as an excitation source.
The subject was instructed to avoid light exposure to the treated toes. Fluorescence evaluation was performed again 10 days post ALA application.
The subject was then treated with 100 Joules/cm^2 of red light using the Sciencetech 7500 illuminator, causing an activation reaction.
The subject was again instructed to avoid light exposure to the treated toes. Follow up evaluations were performed 5 and 20 days post light treatment (15 and 30 days post ALA application).

mouse skin = details: cited from earlier work
acne lesions = details: in vivo; cited from earlier work
onychomycosis = details: cited from earlier work
[3] = 100 Joules/cm^2 red light 10 days post ALA

| Compound | local adverse reaction [1] | sensation during light treatment, proximal toe [2, 3] | sensation during light treatment, second toe [2, 3] | local reaction (edema, redness), proximal toe ([2]; 5 days post light treatment) | local reaction (redness), second toe ([2]; 5 days post light treatment) | appearance of treated toes ([2]; 20 days after exposure to the activating red light) | adverse effects associated with the treatment ([2]; noted by subject) | time for protoporphyrin levels to return to near pretreatment baseline (mouse skin) | time to peak protoporphyrin IX concentration (mouse skin) | time until ability of light to specifically excite protoporphyrin IX disappeared (acne lesions) [h] | adverse events unrelated to the treatment site (onychomycosis; in vivo, po) | complete clearance (onychomycosis; oral, complete course of treatment (every day for three months)) |
| --- | --- | --- | --- | --- | --- | --- | --- | --- | --- | --- | --- | --- |
| NCC(=O)CCC(=O)O [ALA, aminolevulinic acid] | redness and edema (swelling) | only mild tingling and slight stinging | little to no sensation | only slight edema in the area around the nail plate, and mild redness of the nail bed itself | only slight redness in the nail bed | both treated toes appeared normal | no adverse effects | about 18 hours | about six | ≤ 24 |  |  |
| CN(C/C=C/C#CC(C)(C)C)Cc1cccc2ccccc12 [terbinafine, terbinafine hydrochloride] |  |  |  |  |  |  |  |  |  |  | gastrointestinal disorders, rashes, disruption of the sense of taste, and liver disorders | only a minority of cases |

From patent US9561276B2, “Method of treating onychomycosis” (DUSA PHARMACEUTICALS, INC., priority 2012, dated 2017)
